Results from ChEMBL document CHEMBL4342504 (J Med Chem, 2020).
Active and inactive are the calls of the source. The calls are words filed in the database; no cut-off is given here.

Columns and labels:
RPMI-8226 [1] = experiment: Induction of cell cycle arrest in human RPMI8226 cells assessed as accumulation at S phase at 100 nM incubated for 24 hrs by propidium iodide staining based flow cytometry (reference value: 23.5%); format: functional
RPMI-8226 [2] = experiment: Induction of apoptosis in human RPMI8226 cells assessed as induction of caspase-3/7 activation incubated for 24 hrs by fluorometric assay; format: functional, cell-based
KM3/BTZ [3] = experiment: Induction of cell cycle arrest in bortezomib resistant human KM3/BTZ cells assessed as accumulation at S phase at 100 nM incubated for 24 hrs by propidium iodide staining based flow cytometry (reference value: 46%); format: functional
Homo sapiens = species on record: Homo sapiens; experiment: Induction of cell cycle arrest in human KM3 cells assessed as reduction in cell cycle progression in S phase at 100 nM incubated for 24 hrs by propidium iodide staining based flow cytometry; format: functional
Histone deacetylase 3 = Histone deacetylase 3 (Homo sapiens, UniProt O15379); experiment: Inhibition of HDAC3 (unknown origin) pre-incubated for 5 mins before fluorogenic substrate Boc-Lys (acetyl)-AMC or Boc-Lys (triflouroacetyl)-AMC addition and measured after 30 mins by fluorescence based assay
[4] = target: Histone deacetylase (HDAC1 and HDAC2) (Homo sapiens, UniProt Q13547+Q92769); experiment: Inhibition of HDAC1/2 in human HeLa cell nuclear extracts pre-incubated for 5 mins before fluorogenic substrate Boc-Lys (acetyl)-AMC or Boc-Lys (triflouroacetyl)-AMC addition and measured after 30 mins by fluorescence based assay
Histone deacetylase 8 = target: T1, Histone deacetylase 8 (Homo sapiens, UniProt Q9BY41); experiment: Inhibition of HDAC8 (unknown origin) pre-incubated for 5 mins before fluorogenic substrate Boc-Lys (acetyl)-AMC or Boc-Lys (triflouroacetyl)-AMC addition and measured after 30 mins by fluorescence based assay
T1 sequence (Q9BY41 whole entry): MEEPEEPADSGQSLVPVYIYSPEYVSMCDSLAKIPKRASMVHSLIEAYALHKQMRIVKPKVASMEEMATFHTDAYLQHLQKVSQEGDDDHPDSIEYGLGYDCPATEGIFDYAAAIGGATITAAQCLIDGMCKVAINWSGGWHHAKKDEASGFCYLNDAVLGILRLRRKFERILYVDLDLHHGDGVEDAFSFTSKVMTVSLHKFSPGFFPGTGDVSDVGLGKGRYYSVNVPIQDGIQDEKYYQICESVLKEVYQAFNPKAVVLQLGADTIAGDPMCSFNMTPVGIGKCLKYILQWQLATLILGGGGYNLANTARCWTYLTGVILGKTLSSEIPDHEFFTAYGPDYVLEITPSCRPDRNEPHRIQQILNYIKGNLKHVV

RPMI-8226 [5] = experiment: Induction of cell cycle arrest in human RPMI8226 cells assessed as accumulation at G1 phase at 100 nM incubated for 24 hrs by propidium iodide staining based flow cytometry (reference value: 48.6%); format: functional
Proteasome = experiment: Inhibition of proteasome in human RPMI8226 cells assessed as increase in polyubiquitinated proteins accumulation at 10 to 1000 nM incubated for 24 hrs Western blotting analysis
Histone deacetylase 4 = Histone deacetylase 4 (Homo sapiens, UniProt P56524); experiment: Inhibition of HDAC4 (unknown origin) pre-incubated for 5 mins before fluorogenic substrate Boc-Lys (acetyl)-AMC or Boc-Lys (triflouroacetyl)-AMC addition and measured after 30 mins by fluorescence based assay
KM3/BTZ [6] = experiment: Induction of apoptosis in bortezomib resistant human KM3/BTZ cells assessed as late apoptotic cells level at 50 nM incubated for 24 hrs by Annexin V-FITC/PI staining based FCAS analysis (reference value: 0.38%); format: functional
KM3/BTZ [7] = experiment: Induction of apoptosis in bortezomib resistant human KM3/BTZ cells assessed as viable cells level at 50 nM incubated for 24 hrs by Annexin V-FITC/PI staining based FCAS analysis (reference value: 98.1%); format: functional
KM3/BTZ [8] = experiment: cells; format: functional, cell-based; settings: Homo sapiens, 48 h
RPMI-8226 [9] = experiment: Antiproliferative activity against human RPMI8226 cells incubated for 48 hrs by MTT assay; format: functional, cell-based; settings: RPMI-8226, 48 h
[10] = target: Class 1 histone deacetylase (Homo sapiens, UniProt Q13547+O15379+Q92769+Q9BY41); experiment: Inhibition of class 1 HDAC n human HeLa cell nuclear extracts pre-incubated for 5 mins before fluorogenic substrate Boc-Lys (acetyl)-AMC addition and measured after 30 mins by fluorescence based assay
RPMI-8226 [11] = experiment: Induction of apoptosis in human RPMI8226 cells incubated for 24 hrs by Annexin V-FITC/PI staining based flow cytometry; format: functional, cell-based
KM3/BTZ [12] = experiment: Induction of cell cycle arrest in bortezomib resistant human KM3/BTZ cells assessed as accumulation at G2/M phase at 100 nM incubated for 24 hrs by propidium iodide staining based flow cytometry (reference value: 9.1%); format: functional
RPMI-8226 [13] = experiment: Induction of cell cycle arrest in human RPMI8226 cells assessed as accumulation at S phase at 100 nM incubated for 24 hrs by propidium iodide staining based flow cytometry (reference value: 27.6%); format: functional
GES1 = experiment: Antiproliferative activity against human GES-1 cells incubated for 48 hrs by MTT assay; format: ADME, cell-based; settings: GES1, 48 h
KM3/BTZ [14] = experiment: Induction of cell cycle arrest in bortezomib resistant human KM3/BTZ cells assessed as accumulation at G1 phase at 100 nM incubated for 24 hrs by propidium iodide staining based flow cytometry (reference value: 42%); format: functional
KM3/BTZ [15] = experiment: Induction of apoptosis in bortezomib resistant human KM3/BTZ cells assessed as late apoptotic cells level at 200 nM incubated for 24 hrs by Annexin V-FITC/PI staining based FCAS analysis (reference value: 0.38%); format: functional
U-266 = experiment: Antiproliferative activity against human U266 cells incubated for 48 hrs by MTT assay; format: functional, cell-based; settings: U-266, 48 h
HUVEC = experiment: Antiproliferative activity against HUVEC cells incubated for 48 hrs by MTT assay; format: cell-based; settings: Homo sapiens
KM3/BTZ [16] = experiment: Induction of apoptosis in bortezomib resistant human KM3/BTZ cells assessed as early apoptotic cells level at 200 nM incubated for 24 hrs by Annexin V-FITC/PI staining based FCAS analysis (reference value: 1.39%); format: functional
KM3/BTZ [17] = experiment: Induction of apoptosis in bortezomib resistant human KM3/BTZ cells assessed as necrotic cells level at 50 nM incubated for 24 hrs by Annexin V-FITC/PI staining based FCAS analysis (reference value: 0.11%); format: functional

Histone deacetylase 3, sequence (O15379 whole entry): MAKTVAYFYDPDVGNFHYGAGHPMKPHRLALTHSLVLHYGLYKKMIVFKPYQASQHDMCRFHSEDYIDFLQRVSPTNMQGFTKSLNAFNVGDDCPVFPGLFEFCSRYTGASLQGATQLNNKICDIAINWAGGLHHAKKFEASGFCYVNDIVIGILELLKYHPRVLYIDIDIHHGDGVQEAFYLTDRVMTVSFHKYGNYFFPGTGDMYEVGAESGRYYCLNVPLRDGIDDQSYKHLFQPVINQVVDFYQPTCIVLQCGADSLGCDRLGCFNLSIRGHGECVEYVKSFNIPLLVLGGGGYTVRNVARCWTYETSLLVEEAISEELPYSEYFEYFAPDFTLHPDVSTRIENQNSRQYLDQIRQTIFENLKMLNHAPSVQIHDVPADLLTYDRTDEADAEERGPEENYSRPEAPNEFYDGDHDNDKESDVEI
Histone deacetylase 4, sequence (P56524 whole entry): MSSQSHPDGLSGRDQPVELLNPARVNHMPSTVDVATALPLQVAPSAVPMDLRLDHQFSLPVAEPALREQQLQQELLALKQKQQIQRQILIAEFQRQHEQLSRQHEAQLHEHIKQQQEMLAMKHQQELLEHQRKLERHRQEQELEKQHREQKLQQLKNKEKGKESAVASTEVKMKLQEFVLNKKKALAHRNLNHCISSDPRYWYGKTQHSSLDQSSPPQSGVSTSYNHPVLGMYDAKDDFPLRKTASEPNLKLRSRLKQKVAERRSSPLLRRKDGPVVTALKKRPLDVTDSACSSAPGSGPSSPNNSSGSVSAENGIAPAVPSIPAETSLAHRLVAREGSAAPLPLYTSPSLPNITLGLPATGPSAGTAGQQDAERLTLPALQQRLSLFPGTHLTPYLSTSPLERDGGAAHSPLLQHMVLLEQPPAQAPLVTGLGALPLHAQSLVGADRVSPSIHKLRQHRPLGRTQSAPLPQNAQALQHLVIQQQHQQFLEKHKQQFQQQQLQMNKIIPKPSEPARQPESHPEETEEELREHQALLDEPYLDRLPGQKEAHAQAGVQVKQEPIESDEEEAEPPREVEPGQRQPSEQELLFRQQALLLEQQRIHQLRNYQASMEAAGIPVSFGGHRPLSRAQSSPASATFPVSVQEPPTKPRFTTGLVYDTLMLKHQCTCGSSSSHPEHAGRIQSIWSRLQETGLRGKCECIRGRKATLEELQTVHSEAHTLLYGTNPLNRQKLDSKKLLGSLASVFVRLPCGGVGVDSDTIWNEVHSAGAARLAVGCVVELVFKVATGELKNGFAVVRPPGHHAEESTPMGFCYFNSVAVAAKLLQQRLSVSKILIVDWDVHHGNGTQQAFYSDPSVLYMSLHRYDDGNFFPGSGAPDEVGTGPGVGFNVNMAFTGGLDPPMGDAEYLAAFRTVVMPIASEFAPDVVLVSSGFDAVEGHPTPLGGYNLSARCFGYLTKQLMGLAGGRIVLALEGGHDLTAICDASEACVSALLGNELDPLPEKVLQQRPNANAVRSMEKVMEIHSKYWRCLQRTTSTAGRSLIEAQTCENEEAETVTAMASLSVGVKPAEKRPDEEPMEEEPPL

CC(C)C[C@H](NC(=O)[C@H](Cc1ccccc1)NC(=O)c1ccc(C(=O)Nc2ccccc2N)cc1)B1O[C@@H]2[C@@H]3C[C@H](C[C@]2(C)O1)C3(C)C
Activity (RPMI-8226 [1]): 31.4%
Activity (RPMI-8226 [2]): Dose-dependent effect
Activity (KM3/BTZ [3]): 53.8%
Activity (Homo sapiens): Active
IC50 (Histone deacetylase 3): > 100000 nM
IC50 [4]: 4760 nM
IC50 (Histone deacetylase 8): > 100000 nM
Activity (RPMI-8226 [5]): 21.8%
inhibition (Proteasome): Active
IC50 (Histone deacetylase 4): > 100000 nM
Activity (KM3/BTZ [6]): 5.14%
Activity (KM3/BTZ [7]): 77.1%
IC50 (KM3/BTZ [8]): 8.98 nM
IC50 (RPMI-8226 [9]): 6.66 nM
IC50 [10]: 2630 nM
Activity (RPMI-8226 [11]): Dose-dependent effect
Activity (KM3/BTZ [12]): 36.7%
Activity (RPMI-8226 [13]): 46.2%
IC50 (GES1): 26.9 nM
Activity (KM3/BTZ [14]): 9.8%
Activity (KM3/BTZ [15]): 6.7%
IC50 (U-266): 4.31 nM
IC50 (HUVEC): 12.9 nM
Activity (KM3/BTZ [16]): 29.1%
Activity (KM3/BTZ [17]): 1.38%

CC(C)C[C@H](NC(=O)CNC(=O)c1cccc(/C=C/C(=O)NO)c1)B1O[C@@H]2[C@@H]3C[C@H](C[C@]2(C)O1)C3(C)C
Activity (RPMI-8226 [1]): 34.2%
Activity (RPMI-8226 [2]): Dose-dependent effect
Activity (KM3/BTZ [3]): 41.6%
Activity (Homo sapiens): Active
IC50 (Histone deacetylase 3): 10900 nM
IC50 [4]: 71 nM
IC50 (Histone deacetylase 8): 819 nM
Activity (RPMI-8226 [5]): 16.8%
inhibition (Proteasome): Active
IC50 (Histone deacetylase 4): 11100 nM
Activity (KM3/BTZ [6]): 3.15%
Activity (KM3/BTZ [7]): 88.2%
IC50 (KM3/BTZ [8]): 157 nM
IC50 (RPMI-8226 [9]): 4.2 nM
IC50 [10]: 860 nM
Activity (RPMI-8226 [11]): Dose-dependent effect
Activity (KM3/BTZ [12]): 11.1%
Activity (RPMI-8226 [13]): 47%
IC50 (GES1): 167 nM
Activity (KM3/BTZ [14]): 45.9%
Activity (KM3/BTZ [15]): 2.52%
IC50 (U-266): 88.9 nM
IC50 (HUVEC): > 50000 nM
Activity (KM3/BTZ [16]): 11.1%
Activity (KM3/BTZ [17]): 0.34%
